# In BindingDB's records for doi:10.1021/acs.jmedchem.7b01449 (University of Antwerp, 2018):
# pIC50: −log10 of the molar value.
# What was measured:
# [1] = Inhibition of RIPK1 in mouse L929sA cells transfected with human Fas assessed as inhibition in TNF-induced necroptosis pretreated for 24 hrs followed by TNF and zVAD.fmk addition measured after 3 hrs by Hoechst 33342/propidium iodide staining-based assay
# [2] = Inhibition of RIPK1 in mouse L929sA cells transfected with human Fas assessed as inhibition in TNF-induced necroptosis pretreated for 0.5 hrs followed by TNF and zVAD.fmk addition measured after 3 hrs by Hoechst 33342/propidium iodide staining-based assay
# [3] = Inhibition of RIPK1 in mouse L929sA cells transfected with human Fas assessed as inhibition in TNF-induced necroptosis pretreated for 24 hrs followed by TNF and zVAD.fmk addition measured after 3 hrs by Hoechst 33342/propidium iodide staining-based assay; remark: listed apart in the source
# [4] = Inhibition of RIPK1 in mouse L929sA cells transfected with human Fas assessed as inhibition in TNF-induced necroptosis pretreated for 0.5 hrs followed by TNF and zVAD.fmk addition measured after 3 hrs by Hoechst 33342/propidium iodide staining-based assay; remark: listed apart in the source
# [5] = biological target: T1, Receptor-interacting serine/threonine-protein kinase 1 (Mus musculus, UniProt Q60855); assay: (§1) Inhibition of RIPK1 in mouse L929sA cells transfected with human Fas assessed as inhibition in TNF-induced necroptosis pretreated for 24 hrs followed by TNF and zVAD.fmk addition measured after 3 hrs by Hoechst 33342/propidium iodide staining-based assay
# T1 sequence (Q60855 whole entry): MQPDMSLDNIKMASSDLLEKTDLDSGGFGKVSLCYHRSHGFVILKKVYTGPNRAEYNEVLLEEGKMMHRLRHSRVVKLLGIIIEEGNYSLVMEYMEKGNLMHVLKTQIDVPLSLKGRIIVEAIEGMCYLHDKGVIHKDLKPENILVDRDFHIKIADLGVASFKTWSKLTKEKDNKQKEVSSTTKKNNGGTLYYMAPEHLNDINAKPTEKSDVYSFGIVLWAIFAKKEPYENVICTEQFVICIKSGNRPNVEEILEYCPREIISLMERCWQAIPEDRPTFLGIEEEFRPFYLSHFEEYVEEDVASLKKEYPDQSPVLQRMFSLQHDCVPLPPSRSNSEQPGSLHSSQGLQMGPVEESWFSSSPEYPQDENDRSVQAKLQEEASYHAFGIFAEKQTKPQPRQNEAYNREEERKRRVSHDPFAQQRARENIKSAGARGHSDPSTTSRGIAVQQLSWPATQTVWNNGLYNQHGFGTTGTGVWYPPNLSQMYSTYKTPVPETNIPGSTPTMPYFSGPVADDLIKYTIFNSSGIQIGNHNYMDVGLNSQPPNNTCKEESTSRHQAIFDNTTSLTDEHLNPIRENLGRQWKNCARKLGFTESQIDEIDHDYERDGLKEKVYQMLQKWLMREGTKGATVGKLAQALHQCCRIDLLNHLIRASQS
# [6] = biological target: T1, Receptor-interacting serine/threonine-protein kinase 1; assay: ChEBML_1697666
# Excerpt: as §1
SMILES,pIC50 [1],pIC50 [2],also measured
Cc1cc(Nc2cc(N3CCCCC3)nc(Nc3ccc(NC(=O)C4CC4)cc3)n2)n[nH]1,6.17,6.28,–
Cc1cc(Nc2nc(Sc3ccc(NC(=O)C4CCCCC4)cc3)nc(N3CCN(C)CC3)n2)n[nH]1,–,< 5.52,pIC50 [3]: < 5.52
Cc1cc(Nc2cc(N3CCN(C)CC3)nc(Nc3ccc(NC(=O)C4CC4)cc3)n2)n[nH]1,6.19,–,pIC50 [4]: 5.98
Cc1cc(Nc2cc(N3CCN(C)CC3)nc(Sc3ccc(NC(=O)C4CCCCC4)cc3)n2)n[nH]1,–,–,pIC50 [5]: < 5.52
Cc1cc(Nc2cc(N3CCOCC3)nc(Sc3ccc(NC(=O)C4CCCCC4)cc3)n2)n[nH]1,–,6.42,pIC50 [3]: 6.44
Cc1cc(Nc2cc(N3CCOCC3)nc(Sc3ccc(NC(=O)C4CC4)cc3)n2)n[nH]1,6.09,6.41,–
Cc1cc(Nc2cc(N3CCCCC3)nc(Sc3ccc(NC(=O)C4CC4)cc3)n2)n[nH]1,5.76,–,–
Cc1[nH]nc(Nc2cc(N3CCOCC3)nc(Sc3ccc(NC(=O)C4CCCCC4)cc3)n2)c1C,–,< 5.52,pIC50 [3]: < 5.52
Cc1[nH]nc(Nc2cc(N3CCN(C)CC3)nc(Sc3ccc(NC(=O)C4CCCCC4)cc3)n2)c1C,< 5.52,< 5.52,–
Cc1[nH]nc(Nc2cc(N3CCOCC3)nc(Nc3ccc(NC(=O)C4CC4)cc3)n2)c1C,< 5.52,< 5.52,–
Cc1[nH]nc(Nc2cc(N3CCN(C)CC3)nc(Nc3ccc(NC(=O)C4CC4)cc3)n2)c1C,< 5.52,< 5.52,–
Cc1cc(Nc2cc(N3CCCCC3)nc(Nc3ccc(NC(=O)C4CCCCC4)cc3)n2)n[nH]1,5.71,–,pIC50 [6]: < 5.52
Cc1cc(Nc2cc(N3CCN(C)CC3)nc(Nc3ccc(NC(=O)C4CCCCC4)cc3)n2)n[nH]1,5.76,6.04,–
Cc1[nH]nc(Nc2cc(N3CCCCC3)nc(Nc3ccc(NC(=O)C4CCCCC4)cc3)n2)c1C,–,< 5.52,pIC50 [3]: < 5.52
Cc1[nH]nc(Nc2cc(N3CCN(C)CC3)nc(Nc3ccc(NC(=O)C4CCCCC4)cc3)n2)c1C,–,–,pIC50 [3]: < 5.52
Cc1cc(Nc2nc(Sc3ccc(NC(=O)C4CC4)cc3)nc(N3CCCCC3)n2)n[nH]1,< 5.52,< 5.52,–
Cc1cc(Nc2nc(Sc3ccc(NC(=O)C4CC4)cc3)nc(N3CCOCC3)n2)n[nH]1,5.84,–,pIC50 [4]: 6.15
Cc1[nH]nc(Nc2nc(Sc3ccc(NC(=O)C4CC4)cc3)nc(N3CCCCC3)n2)c1C,< 5.52,–,–
Cc1[nH]nc(Nc2nc(Sc3ccc(NC(=O)C4CC4)cc3)nc(N3CCOCC3)n2)c1C,< 5.52,–,–
Cc1[nH]nc(Nc2nc(Sc3ccc(NC(=O)C4CC4)cc3)nc(N3CCN(C)CC3)n2)c1C,< 5.52,–,–
Cc1cc(Nc2nc(Sc3ccc(NC(=O)C4CCCCC4)cc3)nc(N3CCOCC3)n2)n[nH]1,–,< 5.52,pIC50 [3]: 5.79
Cc1[nH]nc(Nc2nc(Sc3ccc(NC(=O)C4CCCCC4)cc3)nc(N3CCCCC3)n2)c1C,–,–,pIC50 [5]: < 5.52

SMILES,pIC50 [1],pIC50 [2],also measured
Cc1[nH]nc(Nc2nc(Sc3ccc(NC(=O)C4CCCCC4)cc3)nc(N3CCN(C)CC3)n2)c1C,–,–,pIC50 [5]: < 5.52
Cc1cc(Nc2nc(Nc3ccc(NC(=O)C4CC4)cc3)nc(N3CCCCC3)n2)n[nH]1,–,–,pIC50 [6]: < 5.52
Cc1cc(Nc2nc(Nc3ccc(NC(=O)C4CC4)cc3)nc(N3CCN(C)CC3)n2)n[nH]1,< 5.52,< 5.52,–
Cc1[nH]nc(Nc2nc(Nc3ccc(NC(=O)C4CC4)cc3)nc(N3CCCCC3)n2)c1C,–,< 5.52,pIC50 [3]: < 5.52
Cc1[nH]nc(Nc2nc(Nc3ccc(NC(=O)C4CC4)cc3)nc(N3CCOCC3)n2)c1C,–,< 5.52,pIC50 [3]: < 5.52
Cc1cc(Nc2nc(Nc3ccc(NC(=O)C4CCCCC4)cc3)nc(N3CCCCC3)n2)n[nH]1,< 5.52,< 5.52,–
Cc1cc(Nc2nc(Nc3ccc(NC(=O)C4CCCCC4)cc3)nc(N3CCOCC3)n2)n[nH]1,–,< 5.52,pIC50 [3]: < 5.52
Cc1cc(Nc2nc(Nc3ccc(NC(=O)C4CCCCC4)cc3)nc(N3CCN(C)CC3)n2)n[nH]1,< 5.52,–,–
Cc1[nH]nc(Nc2nc(Nc3ccc(NC(=O)C4CCCCC4)cc3)nc(N3CCOCC3)n2)c1C,–,–,pIC50 [5]: < 5.52
Cc1[nH]nc(Nc2nc(Nc3ccc(NC(=O)C4CCCCC4)cc3)nc(N3CCN(C)CC3)n2)c1C,–,–,pIC50 [5]: < 5.52
CCN1CCN(c2cc(Nc3n[nH]c(C)c3C)nc(Sc3ccc(NC(=O)C4CC4)cc3)n2)CC1,< 5.52,< 5.52,–
Cc1[nH]nc(Nc2cc(N3CCCCC3)nc(Nc3ccc(NC(=O)C4CC4)cc3)n2)c1C,–,–,pIC50 [5]: < 5.52
Cc1[nH]nc(Nc2cc(N3CCOCC3)nc(Nc3ccc(NC(=O)C4CCCCC4)cc3)n2)c1C,< 5.52,< 5.52,–
Cc1[nH]nc(Nc2nc(Sc3ccc(NC(=O)C4CCCCC4)cc3)nc(N3CCOCC3)n2)c1C,–,–,pIC50 [3]: < 5.52
Cc1[nH]nc(Nc2nc(Nc3ccc(NC(=O)C4CCCCC4)cc3)nc(N3CCCCC3)n2)c1C,–,–,pIC50 [5]: < 5.52
Cc1cc(Nc2nc(Sc3ccc(NC(=O)C4CCCCC4)cc3)nc(N3CCCCC3)n2)n[nH]1,< 5.52,< 5.52,–
Cc1cc(Nc2nc(Nc3ccc(NC(=O)C4CC4)cc3)nc(N3CCOCC3)n2)n[nH]1,5.58,–,pIC50 [4]: 5.97
Cc1[nH]nc(Nc2nc(Nc3ccc(NC(=O)C4CC4)cc3)nc(N3CCN(C)CC3)n2)c1C,–,< 5.52,pIC50 [3]: < 5.52
Cc1cc(Nc2cc(N3CCCCC3)nc(Sc3ccc(NC(=O)C4CCCCC4)cc3)n2)n[nH]1,5.30,5.76,–
Cc1[nH]nc(Nc2cc(N3CCCCC3)nc(Sc3ccc(NC(=O)C4CCCCC4)cc3)n2)c1C,< 5.52,–,–
Cc1cc(Nc2cc(N3CCOCC3)nc(Nc3ccc(NC(=O)C4CCCCC4)cc3)n2)n[nH]1,5.82,6.19,–
Cc1cc(Nc2nc(Sc3ccc(NC(=O)C4CC4)cc3)nc(N3CCN(C)CC3)n2)n[nH]1,5.94,< 5.52,–
